In patent US11186534B2, “Derivatives of sulindac can protect normal cells against oxidative damage” (University of South Alabama, priority 2017, dated 2021):

Key:
[1] = system: Retinal pigmented epithelium cells (ARPE-19); assay: Cell viability assay: protection of RPE cells against oxidative damage from TBHP; assay type: cell-based
Procedure: Cultured cells and reagents: Retinal pigmented epithelium cells (ARPE-19) were obtained from American Type Culture Collection (ATCC, Manassas, Va.) and cultured at 37° C. in 5% CO2. All chemicals were purchased from Sigma unless specified.
Cell viability assay: Cells were cultured and assayed for cell viability essentially as described previously (14). ARPE-19 cells were plated at 10,000 cells per well in a 96-well plate. The cells were grown for 18-20 hours, the medium discarded in aseptic conditions and replaced with fresh culture medium containing the indicated drug concentration. The plates were incubated for 24 hours at 37° C. in a 5% CO2 incubator in the presence of sulindac or Compound 9. To examine the treatment effects on oxidative damage to RPE cells, cells were washed and incubated in media without serum with various concentrations of tert-butyl hydroperoxide (TBHP) for an additional 24h. The culture medium was then discarded and the cells were thoroughly rinsed in PBS. Cell viability was determined by using the Cell Titer 96 Aqueous One Cell Proliferation Assay (Promega) according to the manufacturer's instructions. The assay utilizes a tetrazolium compound that is converted into a water-soluble formazan by the action of cellular NADH oxidase activity in metabolically active cells. The formazan was quantified by measuring the absorbance at 490 nm using a colorimetric microtiter plate reader (SpectraMax Plus; Molecular Devices).
In the present studies, a series of compounds were identified as having the ability to protect RPE cells against oxidative damage using tert-butyl hydroperoxide (TBHP), an organic peroxide, as an oxidizing agent (10).

[2] = target: PDE5 (Homo sapiens, UniProt O76074); assay: IMAP fluorescence polarization PDE assay, PDE5; assay type: biochemical; settings: FIG. 5A
Procedure: (§1) PDE activity was measured using the IMAP fluorescence polarization PDE assay (Molecular Devices) in which the binding of hydrolyzed fluorescent cyclic nucleotide substrate to the IMAP reagent increases fluorescence polarization. Each well of a 96-well nonbinding plate contained 0.25 mg/mL of recombinant enzyme preparations. Enzymes were incubated with COMPOUND 9 or vehicle (DMSO) for 30 min at 30° C. before the addition of a substrate mixture containing 25 nmol/L of fluorescein-cGMP. The DMSO final concentration for each experiment was 2%. After 90 min of incubation at 30° C., the reaction was terminated by the addition of binding reagent. The maximum Fluorescence polarization was measured using a Synergy4 (BioTek) plate reader.

[3] = system: PDE isozymes 1-11 (except PDE6); assay: IMAP fluorescence polarization PDE assay, panel of PDE isozymes; assay type: biochemical; settings: 25 μM; FIG. 5C
Procedure: as §1

[4] = target: PDE10 (Homo sapiens, UniProt Q9Y233); assay: IMAP fluorescence polarization PDE assay, PDE10; assay type: biochemical; settings: FIG. 5B
Sequence of PDE10 (Q9Y233 whole entry): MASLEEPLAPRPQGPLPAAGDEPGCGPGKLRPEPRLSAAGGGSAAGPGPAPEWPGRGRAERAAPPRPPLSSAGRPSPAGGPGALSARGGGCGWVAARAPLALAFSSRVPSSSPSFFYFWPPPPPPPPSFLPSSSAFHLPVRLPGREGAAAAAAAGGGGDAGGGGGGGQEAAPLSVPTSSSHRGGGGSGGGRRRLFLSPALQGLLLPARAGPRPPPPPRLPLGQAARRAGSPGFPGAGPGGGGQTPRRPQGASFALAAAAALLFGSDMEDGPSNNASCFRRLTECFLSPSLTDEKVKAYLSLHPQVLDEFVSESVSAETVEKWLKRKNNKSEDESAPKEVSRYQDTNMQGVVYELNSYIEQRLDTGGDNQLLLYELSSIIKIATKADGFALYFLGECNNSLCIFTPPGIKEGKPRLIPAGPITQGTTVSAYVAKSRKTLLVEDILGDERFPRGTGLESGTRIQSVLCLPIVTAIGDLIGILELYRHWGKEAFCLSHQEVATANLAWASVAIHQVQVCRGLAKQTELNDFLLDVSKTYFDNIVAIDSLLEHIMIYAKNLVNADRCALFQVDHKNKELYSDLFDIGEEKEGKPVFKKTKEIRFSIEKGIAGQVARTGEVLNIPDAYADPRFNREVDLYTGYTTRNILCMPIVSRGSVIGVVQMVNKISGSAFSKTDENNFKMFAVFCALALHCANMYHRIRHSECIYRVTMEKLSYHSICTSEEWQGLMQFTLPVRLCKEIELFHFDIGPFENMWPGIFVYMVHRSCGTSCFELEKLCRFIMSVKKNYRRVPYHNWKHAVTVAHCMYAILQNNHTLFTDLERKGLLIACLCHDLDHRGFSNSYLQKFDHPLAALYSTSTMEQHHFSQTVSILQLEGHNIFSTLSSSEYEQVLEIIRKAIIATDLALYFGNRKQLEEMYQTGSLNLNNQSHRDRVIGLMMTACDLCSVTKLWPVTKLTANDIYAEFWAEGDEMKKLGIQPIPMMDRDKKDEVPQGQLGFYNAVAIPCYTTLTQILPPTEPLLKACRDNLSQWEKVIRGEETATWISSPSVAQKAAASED
Procedure: as §1

COc1cc2c(cc1OC)/C(=C\c1cc(OC)c(OC)c(OC)c1)C(C)=C2CC(=O)O [Compound 9, (Z)-2-(5,6-dimethoxy-2-methyl-1-(3,4,5-trimethoxybenzylidene)-1H-inden-3-yl)acetic acid]
Cyto-protective activity* ([1]; RPE cells, TBHP as oxidizing agent, relative to Sulindac): active | Protective effect on RPE cells in combination with PKG inhibitor Rp-Br-8-PET-cGMPS ([1]; Rp-Br-8-PET-cGMPS 500 μM, 24 h, FIG. 6C): reduces the protection | Lowest concentration found effective in protecting RPE cells ([1]; TBHP, FIG. 3): 10 µM | Protective effect on RPE cells in combination with PKC inhibitor chelerythrine ([1]; chelerythrine 2 μM, 24 h, FIG. 6B): significantly reduces the protective effect | TBHP concentration up to which complete protection of RPE cells was provided ([1]; compound at 25 μM, FIG. 2): ≤ 400 µM | Times more active than sulindac in protecting RPE cells and other cells from oxidative damage ([1]; on a molar basis, stated as 'may be'): at least 10 times | Fold lower effective concentration relative to sulindac (RPE cell protection) ([1]; sulindac 200 μM, Compound 10 at 25 μM, Compound 9 at 10 μM): 20 × | Protective effect on RPE cells in combination with ROS scavenger tiron ([1]; tiron 1 mM, 24 h, FIG. 6A): attenuates the protective effect | IC50 [2]: ~32 µM | Inhibition of other cGMP PDE isozymes, including PDE 1, 2, 3 and 11 [3]: lower inhibitory effects | PDE isozyme selectivity [3]: most active against PDE5 and 10 | IC50 [4]: ~7 µM
